Test results: paper PMC9673804, “Design, synthesis and antitumor evaluation of novel pyrazolo[3,4-d]pyrimidines incorporating different amino acid conjugates as potential DHFR inhibitors” (Journal of Enzyme Inhibition and Medicinal Chemistry, 2022)
Values joined by “and” are separate entries in the source; they are usually repeats but may differ in a detail not shown here. Equal entries are not always repeated.

Tests used:
[1] = tested on: cervical carcinoma (HeLa); assay: SRB cytotoxicity assay, HeLa; format: cell-based; settings: Homo sapiens, HeLa cells
[2] = tested on: human prostate cancer (PC-3); assay: SRB cytotoxicity assay, PC-3; format: cell-based; settings: PC-3 cells
Procedure: (§1) The SRB colorimetric assay was employed to assess the synthesized compounds’ cytotoxic effects on several cancer cell lines (Table 1)[11–14]. […] Furthermore, the effect of tested compounds was evaluated on the normal immortalized HPDE cell line.
(§2) Sulforhodamine B (SRB) assay was employed to assay in-vitro antitumor activities of all the synthesised compounds as describer previously. […] The cell lines were obtained from the American Type Culture Collection (Rockville, USA).

[3] = tested on: colorectal carcinoma (HCT-116); assay: SRB cytotoxicity assay, HCT-116; format: cell-based; settings: Homo sapiens, HCT-116 cells
Procedure: as §1, §2

[4] = tested on: human hepatocellular carcinoma (HepG-2); assay: SRB cytotoxicity assay, HepG-2; format: cell-based; settings: HepG2, HepG-2 cells
Procedure: as §1, §2

[5] = tested on: mammary gland breast cancer (MCF-7); assay: SRB cytotoxicity assay, MCF-7; format: cell-based; settings: Homo sapiens, MCF7, MCF-7 cells
Procedure: as §1, §2

human DHFR enzyme = target: T1, human DHFR enzyme (Homo sapiens, UniProt P00374); assay: Elisa assay of human DHFR enzyme; format: biochemical
T1 construct: purchased MyBioSource MBS9312476
T1 sequence (P00374 1-187): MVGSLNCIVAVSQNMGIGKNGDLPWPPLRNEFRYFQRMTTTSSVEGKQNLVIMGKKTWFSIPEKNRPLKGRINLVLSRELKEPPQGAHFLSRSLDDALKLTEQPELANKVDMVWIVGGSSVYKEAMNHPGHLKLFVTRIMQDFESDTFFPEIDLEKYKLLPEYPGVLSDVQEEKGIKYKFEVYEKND
Procedure: Enzyme-linked immunosorbent assay (ELISA) assay technique was used to evaluate the anti-DHFR effects of all the synthesised compounds on as described previously. The DHFR ELISA kit (MyBioSource, MBS9312476 San Diego, CA, USA) was used according to the manufacturer instructions. […] The test was repeated in triplicate, and the significance was assessed by one-way ANOVA test followed by Tukey’s posttest, where p < 0.05 was considered significance.

caspase 3 = assay: Western blot of caspase-3 expression in MCF-7; format: cell-based, human
Procedure: (§3) The effect of compound 7f on the expression of DHFR, Casp3, Bax, and Bcl-2 proteins in MCF-7 cancer cells was evaluated by western blotting as previously performed. The cancer cells treated or untreated were collected were harvested and blotted on SDS-polyacrylamide gel and separated by Cleaver electrophoresis unit (Cleaver, UK), transferred onto polyvinylidene fluoride (PVDF) membranes (Millipore, USA) for 30 min using a Semi-dry Electroblotter (Biorad, USA) at 2.5 A and 25 V for 30 min. […] After washing, the chemiluminescent Western ECL substrate (Perkin Elmer, Waltham, MA, USA) was applied to the blot and then incubated for 1 min with a mixture of equal volumes from ECL solution A and ECL solution B. The chemiluminescent signals were captured using a CCD camera-based imager (Chemi Doc imager, Biorad, USA), and the bands intensities were then measured by Image J software program. […] For colorimetric assays two-way ANOVA test followed by Bonferroni posttest were used, while for quantification expression on western blot, student-t-test was used (significance p < 0.05). […]
(§4) Sodium dodecyl sulfate polyacrylamide gel electrophoresis (SDS-PAGE) is used to separate proteins based on their size. […] The secondary antibody is typically linked to an enzyme that produces luminescence upon the reaction with its substrate. […]

Bcl-2 [6] = assay: Western blot of Bcl-2 expression in MCF-7; format: cell-based, human
Procedure: as §3, §4

Bcl-2 [7] = assay: Bcl-2 ELISA in MCF-7; format: cell-based, human; settings: dose-dependent
Procedure: The apoptotic effect of compound 7f on breast cancer cell line MCF-7 were evaluated by quantification of Bax, caspase 3/7, and Bcl-2 using Bax ELISA Kit ab199080 (ABCAM, Cambridge, UK), Caspase-Glo 3/7 assay kits (Promega, Fitchburg, MA, USA), and Bcl-2 ELISA Kit ab119506 (ABCAM, Cambridge, UK), according the instructions of manufacturers[11]^,[14]. The cells were treated with compounds 7f (½ IC50, IC50, or 2 ×IC50), and the activities were shown as a percentage change from the untreated control. The experiments were performed in triplicate applying two-way ANOVA test followed by Bonferroni posttest to evaluate the significance (p < 0.05).

## N=C(N)NCCCC(NC(=O)c1ccc(Nc2ncnc3c2cnn3-c2ccccc2)cc1)C(=O)O (stereo not drawn) [Compound 7f, 5-Guanidino-2-{4-[(1-phenyl-1H-pyrazolo[3,4-d]pyrimidin-4-yl)amino]benzamido}pentanoic acid]
[1]
  IC50: 6.99 ± 1.11 µM
[2]
  IC50: 6.29 ± 0.56 µM
[3]
  IC50: 5.48 ± 0.04 µM
[4]
  IC50: 5.12 ± 0.01 µM
[5]
  IC50: 4.65 ± 0.17 µM
Human DHFR enzyme; DHFR ELISA kit, triplicate
  IC50: < 1 µM and 0.31 µM
Human DHFR enzyme; conc 0.1 uM
  inhibition at 0.1 µM: 44%
Human DHFR enzyme; conc 1 uM
  inhibition at 1 µM: 66%
Human DHFR enzyme; conc 10 uM
  inhibition at 10 µM: 86%
Human DHFR enzyme; conc 100 uM
  inhibition at 100 µM: 94%
Caspase 3; MCF7 cells, Cont.MCF7 0.171
  western blotting OD Casp3: 0.575 OD
Caspase 3; MCF-7
  expression of caspase 3 (western blot): significantly increased the expression
Bcl-2 [6]; MCF7 cells, Cont.MCF7 0.762
  western blotting OD Bcl2: 0.501 OD
Bcl-2 [6]; MCF-7, compound at IC50
  expression of Bcl-2 (western blot): significantly down-regulated the expression of Bcl-2
Bcl-2 [7]
  Bcl-2 production (ELISA): significantly reduced the Bcl-2 production
